{"source": "patent US20260200971A1", "about": "“METHODS FOR ISOLATING, DETECTING, AND QUANTIFYING INTERCELLULAR PROTEINS” (Fred Hutchinson Cancer Center, priority 2022, published 2026)", "key": {"[1]": {"tested_on": "HCC70 spheroids", "assay": "Streptavidin dot blot of lysates from labeled 3D cultures", "format": "cell-based", "conditions": "for streptavidin binding signal, hydrogels containing HCC70 cells versus cell-free EHS matrix: fully embedded EHS matrix hydrogel (7-10 mg/mL protein)", "quoted_text": "To evaluate the extent to which the streptavidin signal produced was due to reactions with azide-labeled proteins, HCC70 breast cancer cell spheroids were cultured in 2% EHS matrix suspension culture with or without azidohomoalanine.\nTo assess the specificity of the labeling, streptavidin dot blots were performed with homogeneous lysates prepared from each of the labeling conditions. Additionally, unlabeled lysate was included to account for non-specific binding of the streptavidin reagent, itself. […] As a non-specific reaction control, the same labeling conditions were evaluated in “empty” EHS matrix hydrogels, which contained no cells. […] After labeling and washing the samples, homogeneous lysates of all conditions were prepared.\nGeneration of fully embedded 3D HCC70 cultures. HCC70 spheroids were first seeded in suspension in 2% EHS matrix (following one passage in 3D suspension culture). After allowing spheroids to form for 24 hours, the spheroids were pelleted, the supernatant was aspirated, and the spheroids were directly resuspended in ice-cold EHS matrix (undiluted from the manufacturer's preparation at a typical concentration of 7-10 mg/mL). Resuspension was achieved by slow pipetting up and down forty times on ice with pipette tips that were pre-chilled at −20° C. Next, EHS matrix “domes” were created by pipetting thirty microliters of the EHS matrix/spheroid suspension directly into the center of the well of a 24-well plate with a No. 1.5 polymer coverglass bottom. The plate was flipped upside down to prevent spheroids from settling onto the coverglass, and the plate was incubated at 37° C., 5% CO2, for 1 hour to allow the EHS matrix to form an elastic hydrogel. The domes were then covered with complete cell culture media (1 mL per well) and cultured at 37° C., 5% CO2.\nStreptavidin dot blot analysis. Spheroid lysates were prepared as described above. […]"}, "[2]": {"tested_on": "HCC70 spheroids", "assay": "Confocal fluorescence microscopy of probe labeling in 3D spheroid culture with 2% EHS matrix", "format": "cell-based", "conditions": "azidohomoalanine 24 hours, probe 30 minutes at 37 degrees Celsius, streptavidin Alexa-Fluor 488", "quoted_text": "To do this, 3D organotypic suspension cultures of the HCC70 breast cancer cell line were generated in the presence of EHS matrix. Next, spheroids were labeled with 500 pM azidohomoalanine for 24 hours, and after washing excess reagent, incubated the spheroids with each of the heterobifunctional probes (three hundred micromolar concentration, 30 minutes at 37 degrees Celsius). […] The samples were also counterstained with DAPI and Phalloidin to visualize the nuclei and the cell surface (F-actin in the HCC70 cells is subcortically localized near the membrane). Lastly, confocal fluorescence microscopy was used to qualitatively assess the spatial distribution of streptavidin labeling in all conditions (FIG. 2).\nAzidohomoalanine labeling of 3D HCC70 cultures in 2% EHS matrix. 3D suspension cultures of HCC70 cells in 2% EHS matrix were generated from 2D monolayer culture (as described above), dissociated once, and then plated in fresh 2% EHS matrix. After 48 hours of culture, spheroids were washed three times to remove excess methionine by centrifuging at 200×g for 3 minutes, aspirating the supernatant and resuspending in PBS (with calcium and magnesium). Azidohomoalanine containing media was freshly prepared by diluting a 500 mM azidohomoalanine DMSO stock solution 1,000-fold in methionine reduced 2% EHS matrix suspension media. The washed spheroids were resuspended in azidohomoalanine-containing 2% EHS matrix suspension media (in the same volume as the original suspension), plated in 6-well ultra-low attachment plates, and incubated in TC incubator at 37° C., 5% CO2 for 24 hours.\nSpheroids were cultured for 24 hours in the presence of azidohomoalanine to allow the azidohomoalanine to be incorporated into newly synthesized proteins at methionine residues. After 24 hours, spheroids were washed three times with PBS (containing calcium and magnesium) to remove unincorporated azidohomoalanine by centrifugation at 200×g for 1 minute, aspiration of the supernatant, and resuspension in the PBS wash buffer. […]"}, "[3]": {"tested_on": "MCF7:WS8 cells", "assay": "Click labeling and PEA (Olink Explore 3072) differential intercellular protein expression", "format": "cell-based", "quoted_text": "PEA was used to quantify protein abundance in MCF7:WS8 cells treated with estradiol (1 nM) and fulvestrant concomitantly or with estradiol (1 nM) alone. Proteins from cells treated with or without fulvestrant were ranked by a log 2-fold change in abundance and by a false-discovery rate and identified.\nThe eluted protein fraction was then subjected to proximity extension assay-based quantification using the Olink® Explore protocol to quantify the abundance of proteins in a 3072-plex panel.\nIntercellular protein discovery by the proximity extension assay and NPX normalized protein abundance calculation. Proteins were measured using the Olink® Explore 3072 panel (Olink Proteomics AB, Uppsala, Sweden) according to the manufacturer's instructions. For each experimental replicate, eighty microliters of elution solution (representing labeled proteins from eight hundred thousand cells), was used directly for the Olink Explore protocol."}, "[4]": {"tested_on": "TAMR cells", "assay": "Click labeling and PEA (Olink Explore 3072) differential intercellular protein expression", "format": "cell-based", "conditions": "tamoxifen (100 nM) + estradiol versus estradiol, FDR<0.05, therapy resistant cells", "quoted_text": "Three-dimensional cultures of MCF7:WS8 cells and TAMR cells were generated in 2% EHS matrix suspension. Spheroids were treated with either 1) estradiol (10 nM) or 2) estradiol (10 nM) and tamoxifen (100 nM). […] The eluted protein fraction was then subjected to proximity extension assay-based quantification using the Olink® Explore protocol to quantify the abundance of proteins in a 3072-plex panel.\nFirst, a tamoxifen-induced protein signature was developed for each line by comparing how each cell line responded to tamoxifen treatment. Next, the log 2-fold change enrichment was quantified for cells treated with or without tamoxifen.\nMCF7 cells were seeded, as described above, in estrogen-depleted 2% EHS matrix suspension culture (containing charcoal-stripped FBS and phenol red free) for 24 hours to create estrogen-starved spheroids. […]\nProteins were measured using the Olink® Explore 3072 panel (Olink Proteomics AB, Uppsala, Sweden) according to the manufacturer's instructions. […] Libraries were subjected to a bead-based purification and quality was assessed using an Agilent 2100 bioanalyzer (Agilent Technologies, Palo Alto, CA). […]"}, "[5]": {"tested_on": "Claudin 7", "assay": "Streptavidin bead capture, elution and Claudin 7 western blot", "parameters": "species or system human", "conditions": "HCC70 spheroids, mild competitive elution with free biotin versus denaturing elution", "procedure": "After lysing the spheroids, biotinylated or desthiobiotinylated proteins were captured using streptavidin-functionalized magnetic polystyrene beads. The unbound fraction was also collected to evaluate the capture efficiency. […] This competitive elution was performed in two sequential incubations at 37° C. and 4° C. The recovery of Claudin 7 was used to evaluate the efficiency with which full-length intercellular proteins were released from the magnetic bead. Claudin 7 is a well-known tight-junction protein associated with intercellular adhesions (FIG. 4A), and it is localized to the pericellular zones in HCC70 spheroids (FIG. 4D). Next, western blots against Claudin 7 were performed in the eluted fraction from the streptavidin pull-down, and the signal intensity of Claudin 7 from the 15 μg of HCC70 spheroid starting lysate was evaluated. […] Streptavidin magnetic bead enrichment. […] For every 100 μL of sample, 200 μL of the 10 mg/mL magnetic bead suspension were used. […] Next a magnetic bead pellet was prepared by separating the beads on a magnetic stand and removing the supernatant. […] Western blot and dot blot quantification. Western blot quantification was performed using ImageJ. […] Integrated fluorescence intensity was calculated using the “Measure” tool, and the background-corrected integrated fluorescence intensity was computed for each band."}, "[6]": {"tested_on": "Laminin B1, Laminin C1, and Nidogen", "assay": "LC/MS label-free quantification of EHS matrix proteins in eluted fraction versus starting lysate", "conditions": "HCC70 spheroids, 2% EHS matrix, streptavidin enrichment and elution with free biotin", "procedure": "Compositions of the EHS matrix vary from lot-to-lot, but three of the most abundant proteins EHS matrix preparations are known to be Laminin B1, Laminin C1, and Nidogen. LC/MS proteomics were performed on crude lysates prepared from organotypic cultures of HCC70 spheroids in 2% EHS matrix. As expected, the most abundant proteins in these crude lysates were the EHS matrix proteins, Laminin B1, Laminin Cl, and Nidogen (FIG. 5A). This was true regardless of whether the peptide search was performed against the human or mouse proteome, due to high sequence homology of these proteins between both species. […] Protein concentration of crude lysates was determined using a Pierce BCA assay kit (Thermo Fisher Scientific #23225) according to the manufacturer's protocol. […] Desalted samples were brought up in 2% acetonitrile in 0.1% formic acid and were analyzed by LC/ESI MS/MS with a Thermo Scientific Easy-nLC 1000 (Thermo Scientific, Waltham, MA) nano HPLC system coupled to a tribrid Orbitrap Fusion (Thermo Scientific, Waltham, MA) mass spectrometer. […] Label-free quantification data analysis of LC/MS samples. […] In the specific case in which the abundance of EHS matrix proteins was evaluated, a search was also performed against the Uniprot Mus musculus files (however, due to sequence homology the same conclusions were drawn regardless of whether the Mus musculus database was included in the search). […]"}, "[7]": {"target": "Streptavidin (Streptomyces avidinii, UniProt P22629)", "sequence (P22629 25-183, species assumed)": "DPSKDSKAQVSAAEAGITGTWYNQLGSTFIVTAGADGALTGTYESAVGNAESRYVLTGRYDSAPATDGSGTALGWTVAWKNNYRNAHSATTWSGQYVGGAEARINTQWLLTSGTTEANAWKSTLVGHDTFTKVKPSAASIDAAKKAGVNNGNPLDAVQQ", "conditions": "binding to streptavidin; cited from earlier work"}, "[8]": {"tested_on": "MCF7:PIK3CA-WT cells", "assay": "CyQuant proliferation assay, alpelisib dose response, PIK3CA-WT cells", "format": "cell-based", "conditions": "estrogen deprived conditions, 5 days", "procedure": "(§1) Dose response curves are shown for three different MCF7 sublines (MCF7:WS8, MCF7:PIK3CA-mutant, MCF7:PIK3CA-WT) in response to treatment with fulvestrant or alpelisib. Proliferation was determined by a CyQuant genomic DNA quantification. Individual points represent the mean of n=8 replicate wells. Curves represent the least-squares fit of the Hill equation. Error bands represent the 95% confidence interval of the fit, as determined using the gradient method.\n(§2) The MCF7 cell line harbors two activating E545K mutant PIK3CA alleles. To evaluate the relationship between PIK3CA mutation, AREG expression, and drug resistance, the MCF7 parental line was compared to a previously published isogenic MCF7 line with a wildtype (WT) PIK3CA knock in, which has both mutant alleles corrected (see Beaver et al., Clin. Cancer Res. 19:5413-5422, 2013). […] Then, under estrogen deprived conditions, the growth of MCF7 PIK3CA mutant or MCF7:PIK3CA-WT cells was assessed over 5 days in the presence of varying doses of alpelisib (a PI3K inhibitor) (FIGS. 9B and 9C). Proliferation was quantified by an end-point genomic DNA quantification (CyQuant), and then the concentration-response curve was fit to a Hill equation to extract the IC50 and the asymptotic proliferation in the limit of infinite drug […]."}, "[9]": {"tested_on": "MCF7:PIK3CA-mutant cells", "assay": "CyQuant proliferation assay, alpelisib dose response, PIK3CA mutant cells", "format": "cell-based", "conditions": "estrogen deprived conditions, 5 days", "procedure": "as §1, §2"}, "[10]": {"tested_on": "MCF7:WS8 cells", "assay": "CyQuant genomic DNA proliferation assay, fulvestrant dose response", "format": "cell-based", "conditions": "estradiol 1 nM; for IC50: Hill equation fit", "procedure": "as §1\nGiven that AREG induction by estradiol supports estradiol-dependent proliferation, the expectation was that constitutive overexpression of AREG would confer resistance to drugs that inhibit estrogen signaling (e.g., fulvestrant). […] The proliferation of each cell line was evaluated in the presence of estradiol (1 nM) and varying concentrations of fulvestrant using a genomic DNA quantification assay (CyQuant). The Hill equation was then used to determine the IC50 of each cell line following fulvestrant treatment (FIG. 9A). […] Therefore, targeting AREG signaling may alleviate endocrine therapy resistance."}, "[11]": {"tested_on": "breast epithelial MCF10A cells", "conditions": "2D culture, exogenous media supplement; cited from earlier work"}}, "data": [{"molecule": "[N-]=[N+]=NCC[C@H](N)C(=O)O", "note": "[azidohomoalanine]", "values": [{"measurement": "streptavidin binding versus non-labeled azidohomoalanine controls", "setting": "[1]; 2% EHS matrix suspension, DBCO-PEG4-Desthiobiotin labeling", "value": 10, "unit": "fold"}]}, {"molecule": "DBCO-sulfo-Biotin", "values": [{"measurement": "labeling of the pericellular zone / intercellular spaces", "setting": "[2]", "value": "exhibited pericellular labeling"}]}, {"molecule": "CC/C(=C(\\c1ccccc1)c1ccc(OCCN(C)C)cc1)c1ccccc1", "note": "[tamoxifen]", "values": [{"measurement": "number of proteins upregulated at least 2-fold in response to tamoxifen", "setting": "[3]; tamoxifen (100 nM) + estradiol versus estradiol, FDR<0.05, therapy sensitive cells", "value": "Thirty"}, {"measurement": "number of proteins upregulated at least 2-fold in response to tamoxifen", "setting": "[4]", "value": "forty-three"}]}, {"molecule": "O=C1N[C@H]2[C@H](CS[C@H]2CCCCC(=O)ON2C(=O)CC(S(=O)(=O)[O-])C2=O)N1.[Na+]", "note": "(stereo partly drawn) [sulfo-NHS-biotin]", "values": [{"measurement": "labeling of the pericellular zone / intercellular spaces", "setting": "[2]", "value": "unable to diffuse into intercellular zones of the organoids"}, {"measurement": "streptavidin binding signal, hydrogels containing HCC70 cells versus cell-free EHS matrix", "setting": "[1]", "value": "equal"}]}, {"molecule": "C[C@]12CC[C@@H]3c4ccc(O)cc4CC[C@H]3[C@@H]1CC[C@@H]2O", "note": "[estradiol]", "values": [{"measurement": "number of proteins upregulated by at least 2-fold", "setting": "[3]; estradiol versus estrogen-deprived controls, FDR<0.05", "value": "at least 188 proteins"}]}, {"molecule": "DBCO-PEG4-Desthiobiotin", "values": [{"measurement": "recovery of Claudin 7 compared to the DBCO-sulfo-biotin samples", "setting": "[5]", "value": 10, "unit": "fold"}, {"measurement": "labeling of the pericellular zone / intercellular spaces", "setting": "[2]", "value": "exhibited pericellular labeling"}, {"measurement": "lower normalized abundance of Laminin B1, Laminin C1 and Nidogen versus starting lysates", "setting": "[6]", "value": "over 10 fold"}, {"measurement": "streptavidin binding signal, hydrogels containing HCC70 cells versus cell-free EHS matrix", "setting": "[1]", "value": 10, "unit": "fold"}]}, {"molecule": "C[C@@H]1NC(=O)N[C@@H]1CCCCCC(=O)O", "note": "[Desthiobiotin]", "values": [{"measurement": "Kd", "setting": "[7]", "value": 0.66, "unit": "nM"}, {"measurement": "Koff", "setting": "[7]", "value": 0.018, "unit": "s⁻¹"}, {"measurement": "Kon", "setting": "[7]", "value": "2.7e7 1/M 1/s"}]}, {"molecule": "Cc1nc(NC(=O)N2CCC[C@H]2C(N)=O)sc1-c1ccnc(C(C)(C)C(F)(F)F)c1", "note": "[alpelisib]", "values": [{"measurement": "effect of AREG overexpression on alpelisib response", "setting": "[8]", "value": "no effect"}, {"measurement": "increase in IC50 by AREG overexpression", "setting": "[9]", "value": 4, "unit": "fold"}]}, {"molecule": "C[C@]12CC[C@@H]3c4ccc(O)cc4C[C@@H](CCCCCCCCC[S+]([O-])CCCC(F)(F)C(F)(F)F)[C@H]3[C@@H]1CC[C@@H]2O", "note": "(stereo partly drawn) [fulvestrant]", "values": [{"measurement": "most significantly upregulated intercellular protein", "setting": "[3]; estradiol (1 nM) + fulvestrant versus estradiol (1 nM) alone, FDR<0.05", "value": "ITGB6"}, {"measurement": "IC50", "setting": "[10]; MCF7:WS8, AREG overexpression line", "value": 255, "unit": "nM"}, {"measurement": "IC50", "setting": "[10]; MCF7:WS8, control line (ORF stuffer)", "value": 34, "unit": "nM"}, {"measurement": "increase in IC50, AREG overexpression versus control", "setting": "[10]", "value": 7.5, "unit": "fold"}]}, {"molecule": "recombinant amphiregulin: recombinant amphiregulin (AREG), EGF receptor family ligand (protein, UniProt P15514 101-187, looked up, Amphiregulin, recombinant amphiregulin (AREG), EGF receptor family ligand) Amphiregulin: SVRVEQVVKPPQNKTESENTSDKPKRKKKGGKNGKNRRNRKKKNPCNAEFQNFCIHGECKYIEHLEAVTCKCQQEYFGERCGEKSMK", "values": [{"measurement": "concentrations at which activity is exhibited", "setting": "[11]", "value": "5 to 50", "unit": "ng/mL"}]}]}
